Reference: patent US20210252008A1, “BIARYL COMPOSITIONS AND METHODS FOR MODULATING A KINASE CASCADE” (Athenex, Inc., priority 2004, published 2021)

How the values were obtained:
[1] = system: HT29 cell line (NCI standard human colon carcinoma cell line); test: BrdU cell growth inhibition, HT-29; assay type: cell-based; settings: HT29 cells
Procedure: (§1) The GI50s for several of the compounds of the invention were assayed as described herein.
The HT29 cell line is a NCI standard human colon carcinoma cell line. […] HT29 cells were routinely cultured in McCoy's 5A medium supplemented with Fetal Bovine Serum (1.5% v/v) and L-glutamine (2 mM).
(§2) In the BrdU Assay for cell growth inhibition, quantitation of cell proliferation was based on the measurement of BrdU incorporation during DNA synthesis. The Cell Proliferation ELISA BrdU assay kit (colorimetric) was obtained from Roche Applied Science and performed as per vendor instructions.
(§3) The growth inhibition (GI) is determined from the formula GI=(T0-Tn×100/T0−CONn) where T0 is the BrdU growth of untreated cells at time “0”, Tn is the BrdU growth of treated cells at day “n” and CONn is the control BrdU growth of control cells at day “n”. The GI50 was extrapolated and the data plotted using XL-Fit 4.0 software.
(§4) For 96 well culture plate experiments, c-Src 3T3 medium was supplemented with 10 mM HEPES buffer. HT-29 cells were seeded in standard tissue culture 96-well plates and c-Src 3T3 cells were seeded in 96-well plates coated with Poly-D-lysine (BIOCOAT™). To increase CO2 diffusion, c-Src 3T3 96-well plates were incubated with their lids raised by 2 mm using sterile rubber caps.
(§5) Seeded 96 well plates were allowed to attach overnight for 18-24 hours, either at 37° C. and 5% CO2 for HT-29 or at 37° C. and 10% CO2 for c-Src 3T3. Approx 18-24 hours after seeding, the initial growth of cells (To) was determined for untreated cells using the BrdU assay. Samples were reconstituted in DMSO at 20 mM and intermediate dilutions made using DMEM containing 10% FBS. The final assay concentrations were 1.5% for FBS and 0.05% for DMSO. Samples were added as 10 μL aliquots in triplicate and plates were incubated as above for 72 hours. Negative (vehicle) and positive controls (e.g., AZ (KX-328)) were included. Plates were assayed for BrdU and the data analyzed as above for GI50. […]

[2] = system: c-Src 3T3 cells (NIH 3T3 transfected with human c-Src 527F); test: BrdU cell growth inhibition, c-Src 3T3; assay type: cell-based, mouse
Procedure: as §1
The c-Src 3T3 is a mouse fibroblast NIH 3T3 normal cell line that has been transfected with a point-mutant of human c-Src wherein tyrosine 527 has been converted to a phenylalanine. This mutation results in “constitutively active” c-Src because phosphorylation on tyrosine 527 results in auto-inhibition of Src by having it fold back on its own SH2 domain. With a Phe there, this phosphorylation can't occur and therefore auto-inhibition can't occur. Thus, the always fully active mutant Src then converts the normal mouse fibroblasts into rapidly growing tumor cells. Since the hyperactive Src is the main factor driving growth in these cells (particularly when cultured under low growth serum conditions), compounds active in blocking this growth are thought to work by blocking Src signaling (e.g. as a direct Src kinase inhibitor or as an inhibitor acting somewhere else in the Src signaling cascade). The cells were routinely cultured in DMEM supplemented with Fetal Bovine Serum (2.0% v/V), L-glutamine (2 mM) and Sodium Pyruvate (1 mM).
as §2, §3, §4
as §5, with “Negative (vehicle) and positive controls (e.g., AZ (KX-328)) were included.” left out

[3] = system: Guinea pigs, cisplatin-induced hearing loss; test: Protection against cisplatin-induced hearing loss; assay type: in vivo; settings: guinea pig; subcutaneous, prior to cisplatin; FIG. 15
Procedure: The effects of high level noise and ototoxic drugs, such as cisplatin or the class of aminoglycosides, share several common features in the inner ear. First, the noise and/or drugs alter the free radi cal/anti oxidant levels in the cochlea (inner ear). […] Guinea pigs (N=7) were used in studies of cisplatin-induced hearing loss. The animals' hearing sensitivity was measured using standard electrophysical techniques before the experimental manipulation. […] Animals were anesthetized and treated with cisplatin. Subsequently, the animals' hearing was tested to determine evoked potential threshold shifts.
Animals were treated subcutaneously with KX1-004 prior to the cisplatin-induced hearing loss.

[4] = system: Chinchillas, noise-induced hearing loss; test: Protection against noise-induced hearing loss; assay type: in vivo; settings: chinchilla; round window application; 4 kHz band noise 105 dB SPL four hours; day 1, 7, 21; in most cases
Procedure: Chinchillas (N=6) were used in studies of noise-induced hearing loss. The animals' hearing sensitivity was measured using standard electrophysical techniques before the experimental manipulation. […] Animals were anesthetized, the auditory bullae were opened, and the left and right cochleas were visualized. The round window leading to the scala tympani of the cochlea was used as the access point for drug application. Animals were treated with KX1-004, KX1-141, KX1-329 or KX2-328 (a non-ATP competitive inhibitor from Astrazeneca), emulsified in DMSO, in […] of saline solution, which was placed on the round window of one ear. A control solution of 3 mM DMSO in […] of saline solution was placed on the round window of the other ear. The solution was allowed to set on the round window for 30 minutes, then the auditory bullae were closed. […] Following the noise exposure, the animals' hearing was tested at day 1, day 7, and day 21 to determine evoked potential threshold shifts. Permanent threshold shift was assessed at day 21.
FIGS. 10-12 show the average threshold shifts for animals treated with KX1-004, KX1-141, KX1-329 or KX2-328.

[5] = system: osteoclasts on bone slices; test: Effect on bone resorption in vitro (bone slices); assay type: cell-based
Procedure: To determine the effects of the compounds on osteoclast formation on bone slices, the bone slices were treated with Rapamycin, KX1-141, KX2-328, or KX1-329. […] The number of osteoclasts on the bone slices were counted.
During the resorption of bone, osteoclasts form resorption pits. To determine the effects of the compounds on resorption pit formation on bone slices, the bone slices were treated with Rapamycin, KX1-141, KX2-328, or KX1-329, as described above. […] The number of resorption pits on the bone slices was determined.
Bone slices were treated as indicated above. […] The bone slices were then stained with TRAP.
Bone slices were treated as indicated above. […] The bone slices were stained with Toluidine Blue to reveal resorption pits, which are indicators of osteoclast-mediated resorption of bone.

[6] = system: osteoclasts; test: Effect on osteoclast survival; assay type: cell-based; settings: 48 hours, RANKL and M-CSF
Procedure: To determine the effect of the compounds on osteoclast survival, osteoclasts were treated with Rapamycin, KX1-141, KX2-328, or KX1-329 for 48 hours in the presence of RANKL and M-CSF. The untreated, control cells were incubated in the presence of RANKL and M-CSF alone. Rapamycin was used as a positive control for the inhibition of osteoclast survival.
As described above, osteoclasts were treated with Rapamycin, KX1-141, KX2-328, or KX1-329 for 48 hours in the presence of RANKL and M-CSF. […] Cells were then stained with TRAP and the number of TRAP-positive osteoclasts were counted.

[7] = system: osteoclast precursors derived from spleen cells; test: Effect on osteoclast formation; assay type: cell-based; settings: 5 days, RANKL and M-CSF
Procedure: To determine the effect of the compounds on osteoclast formation, the compounds were added to osteoclast precursors derived from spleen cells. For the generation of spleen-derived osteoclasts, spleen cells comprising osteoclast precursors were treated with Rapamycin, KX1-141, KX2-328 (Astrazeneca compound), or KX1-329 for 5 days in the presence of receptor activator of nuclear factor-KB ligand (RANKL) and macrophage colony-stimulating factor (M-CSF). In in vitro murine or human osteoclast models, soluble RANKL enables osteoclast precursors to differentiate in the presence of M-CSF (Quinn, et al.; 1998, Endocrinology, 139, 4424-4427; Jimi, et al.; 1999, J. Immunol., 163, 434-442). The untreated control cells were incubated in the presence of RANKL and M-CSF alone. Rapamycin was used as a positive control for the inhibition of osteoclast formation.
For generating spleen-derived osteoclasts, spleen cells were treated as described above. […] Cells were then stained with the osteoclast marker, tartrate-resistant acid phosphatase (TRAP) to visualize differentiated cells. The numbers of TRAP-positive osteoclasts were counted.

Molecule: CCOc1ccc(-c2ccc(CC(=O)NCc3cccc(F)c3)nc2)c(OCCN2CCN(C)CC2)c1 [KX2-384]
- GI50 (HT29) [1]: inactive (HT-29)

Molecule: CN1CCN(Cc2ccc(-c3ccc(CC(=O)NCc4cccc(F)c4)nc3)cc2)CC1 [KX2-376]
- GI50 ([2]; NIH3T3): > 16 nM

Molecule: KX1-004
- protection against cisplatin-induced hearing loss (median CAP thresholds) [3]: protected against cisplatin-induced hearing loss
- average dB threshold shifts of treated ears vs control [4]: lower

Molecule: CC(C)COc1cc(F)cc(CNC(=O)Cc2ccc(-c3ccc(OCCN4CCCCC4)cc3)cn2)c1 [KX2-386]
- GI50 (HT29) [1]: inactive (HT-29)

Molecule: O=C(Cc1ccc(-c2ccccc2)c[n+]1[O-])NCc1cccc(F)c1 [KX1-329 N-oxide]
- GI50 (c-Src 3T3) [2]: inactive (c-Src 3T3);
- GI50 (HT29) [1]: inactive (HT-29)

Molecule: O=C(Cc1ccc(-c2ccccc2)cn1)NCc1cccc(F)c1 [KX1-329]
- number of osteoclasts on the bone slices vs untreated control ([5]; FIG. 20A): reduced the number of osteoclasts on the bone slices
- number of resorption pits on the bone slices vs untreated control ([5]; FIG. 20B): reduced the number of resorption pits
- number of TRAP-positive osteoclasts on the bone slices vs untreated control ([5]; TRAP stain, FIG. 21A): reduced the number of TRAP-positive osteoclasts
- number of resorption pits on the bone slices vs untreated control ([5]; Toluidine Blue stain, FIG. 21B): reduced the number of resorption pits
- survival of osteoclasts vs untreated control ([6]; FIG. 18): inhibited the survival of osteoclasts
- number of TRAP-positive osteoclasts vs untreated control (survival) ([6]; FIG. 19): reduced the number of TRAP-positive osteoclasts
- average dB threshold shifts of treated ears vs control [4]: lower
- number of TRAP-positive osteoclasts vs untreated control (formation) ([7]; FIG. 17): reduced the number of TRAP-positive osteoclasts
- formation of osteoclasts vs untreated control ([7]; stained, FIG. 16): inhibited the formation of osteoclasts

Molecule: CC(C)COc1cc(F)cc(CNC(=O)Cc2ccc(-c3ccc(OCCN4CCOCC4)cc3)cn2)c1 [KX2-387]
- GI50 (c-Src 3T3) [2]: inactive (c-Src 3T3);

Molecule: CCOc1ccc(-c2ccc(CC(=O)NCc3cccc(F)c3)nc2)c(OCCN2CCCCC2)c1 [KX2-389]
- GI50 (c-Src 3T3) [2]: Inactive (c-Src 3T3);
